Patent publication EP3050886A1, “Fluorescent dyes and dye precursors” (Bürkert Werke GmbH, priority 2015, dated 2016)

Experiments:
[1] = Absorption spectra / extinction coefficients; format: physicochemical
Method: Absorption spectra were recorded in a 1-cm path length cuvette (Hellma, 104.002B-QS) on a SPECORD®-205 spectrometer from Analytik Jena.
The Extinction coefficients of the flourophores fluorescein, 5-carboxyfluorescein (5-CF), 5-carboxy Oregon Green™ (5-COG), 5-amido N-propyl Oregon Green (5-POG; Example 2) and 5-amido N-propyl fluorescein (5-PFA; Example 3) were measured in 0.1 M NaOH solution at pH 12.7.
The extinction coefficients of the pro-fluorophores 5-thiourea N-propyl fluorescein diacetate (5-PFDAT; Example 5), 5-propyl carboxylate fluorescein diacetate (5-PFDAE; Example 8), 5-amido N-propyl fluorescein diacetate (5-PFDA; Example 7), 5-carboxy Oregon Green diacetate (5-COGDA; Example 9), 5-amido N-propyl Oregon Green diacetate (5-POGDA; Example 6) and 5-amido N-propyl Oregon Green acetoxymethylester (5-POGAM; Example 10) were measured in PBS buffer containing 0.6 % glutaraldehyde at pH 7.

[2] = Fluorometric measurements / quantum yield; format: physicochemical; conditions: for Φ (quantum yield): 1 µM in 0.1 M NaOH at pH 12.7, excitation 488 nm, standard fluorescein, n = 3; for λem / λex: 0.1 M NaOH at pH 12.7
Method: Fluorometric measurements were made using fluorescence grade quartz cuvette and FluoroLog®-3 spectrofluorometer from Horiba Jobin Yvon equipped with sample stirring. The quantum yields (QY) of 5-CF, 5-COG, 5-POG and 5-PFA were measured with samples at 1 µM (absorbance 488 nm ≤ 0.2) in 0.1 M NaOH at pH 12.7. Every sample and the standard (fluorescein) was prepared freshly before use. In this study, fluorescein in 0.1 M NaOH at pH 12.7 was the reference system with a known quantum yield (Φ = 0.925).
Quantum yield measurements were done using standard absorption and emission spectrometers. Emission spectra range was between the wavelengths 498 - 600 nm and excitation wavelength was 488 nm for the samples and fluorescein. The refractive indices of the samples and fluorescein solutions were the same since they were prepared in the same buffer. Under these conditions, quantum yields were calculated by using the equation: Φ^i = (F^ifs/F^sfi)*Φ^s [formula]
wherein Φ^i and Φ^s are the photoluminescence QY of the sample and standard (fluorescein), respectively; F^i and F^s are the integrated intensities (areas) of sample and fluorescein spectra, respectively; and fi and fs are the absorption factor of the sample and fluorescein, respectively, with fi or s = 1-10^-Ai or s, wherein A = absorbance.
The same experiment was repeated three times (n = 3).

[3] = test system: Bacillus subtilis (B. subtilis) (ATCC 6633); test: Bacteria staining test, fluorescence microscopy; format: cell-based; conditions: Fig. 3d, comparison between pro-fluorophores
Method: (§1) Escherichia coli (E. coli) (ATCC 8739) and Bacillus subtilis (B. subtilis) (ATCC 6633) strains were routinely grown in Luria Bertani (LB) broth or on LB agar plates for 18h at 37 °C. Waterborne environmental bacteria such as Enterobacter cloacae (E. cloacae), Chryseobacterium indologenes (C. indologenes), Pseudomonas aeruginosa (P. aeruginosa), and E. coli (EC18) were purchased from Eurofins™. Environmental bacteria were grown in LB broth or on casein-peptone soymeal-peptone agar plates for 18h at 37 °C.
(§2) For the staining tests, E. coli (ATCC 8739 or EC18), E. cloacae, C. indologenes, P. aeruginosa and B. subtilis were cultivated in Luria-Bertani (LB) broth until exponential phase at 37°C with shaking at 300 rpm revolutions per minutes (rpm). Bacteria were harvested and washed in sterile phosphate buffer saline solution (PBS) at pH […] by centrifugation at 10000 rpm for 3 min at room temperature (21 ± 2 °C). Then the bacteria were resuspended in PBS at a concentration of 1·10^9 bacteria/ml. Bacteria concentration was calculated according to the turbidity measure at 660 nm (A660nm=1 correspond to bacterial suspension at ∼ 5·10^8 bacteria/ ml).
(§3) Dead bacterial suspensions at 1·10^9 bacteria/ml (negative controls) of these five species of bacteria were prepared individually by addition of 20 µl of bleach containing 2.6 % active chlorine. Bacteria were treated with bleach solution for 15 min. Dead bacteria were washed twice in sterile PBS by centrifugation at 10000 rpm for 3 min at room temperature. The culturability of the negative controls was assessed by plating 100 µl of bacterial suspension onto LB agar or Caso agar and incubating the plates at 37 °C for 72 h.
(§4) Bacteria (100 µl suspension at 1·10^9 bacteria/ml) were stained with 10 µM or 15 µM of pro-fluorophore (5-CFDA, 5-PFDAE, 5-PFDAT, 5-PFDA, 5-COGDA, 5-POGDA or 5-POGAM) in 200 µl of PBS solution containing 0.6 % of glutaraldehyde. Bacteria were incubated at 37 °C for 10 - 60 min with pro-fluorophore in darkness. After bacterial staining, they were washed and resuspended in 100 µl of PBS as described above.
(§5) Staining of the bacterial suspension was observed under a fluorescent microscope. These bacteria were imaged with a Leica DM5500 microscope equipped with FITC filter. […] Images were collected with a 100x objective. Fluorescence intensity of stained bacterial suspension was also measured with FluoroLog®-3 (Horiba Jobin Yvon) spectrofluorometer equipped with sample stirring. Samples were placed in fluorescence grade quartz cuvette having a volume of 1 ml. The excitation wavelength used was 488 nm and emission wavelength used was 517 nm. The same experiment was repeated three times (n = 3).

[4] = test system: E. coli (ATCC 8739); test: Labeling of viable or dead E. coli, fluorescence microscopy; format: cell-based, Escherichia coli; conditions: 15 µM, 30 min at 37 °C, Figure 4
Method: as §1, §2, §3, §4, §5
The pro-fluorophores according to the present invention are preferably used to label E. coli cells. Viable or dead E. coli (ATCC 8739) are incubated with these fluorophores and commercial 5-CFDA as described above. […] Glutaraldehyde is added to the incubation solutions to improve the retention of the fluorophores in bacteria.
Bacteria were washed before being imaged with a Leica DM5500 microscope, 100x objective. Scale bars indicate 10 µm.

[5] = Short-term chemical stability (spontaneous fluorescence generation) in aqueous buffer; format: physicochemical; conditions: for chemical stability in aqueous solution (in words): PBS solution containing 0.6 % glutaraldehyde, 37°C
Method: The short-term chemical stability of the pro-fluorophores of the present invention in an aqueous buffer was evaluated by fluorometric measurement analysis after several minutes of storage at 37°C.
Each pro-fluorophore (5-CFDA, 5-PFDAE, 5-PFDAT, 5-PFDA, 5-COGDA, 5-POGDA, 5-POGAM) was dissolved in dimethylsulfoxide (DMSO) in order to prepare a 10 mM stock solution. Short-term stability studies (0-60 min) were performed in the absence of light at 37°C. The pro-fluorophore stock solutions were diluted into a PBS solution containing 0.6 % of glutaraldehyde (pH ∼7). The pro-fuorophore final concentration was 15 µM. Samples were stored in a fluorescence grade quartz cuvette having a volume of 1 ml. Fluorescence emission spectra between 500 and 540 nm were recorded every 10 minutes. The excitation wavelength used was 488 nm. Fluorometric measurement were made with a FluoroLog®-3. (Horiba Jobin Yvon) spectrofluorometer equipped with sample stirring. The same experiment was repeated three times (n = 3).
Thus, the slope of the straight line corresponds to the speed of spontaneous fluorescence generation.

[6] = test system: E. coli (ATCC 8739); test: Labeling of viable E. coli, fluorescence intensity by spectrofluorometer; format: cell-based, Escherichia coli
Method: as §2, §3
[…] Bacteria were incubated at 37 °C for 10 - 60 min with pro-fluorophore in darkness. After bacterial staining, they were washed and resuspended in 100 µl of PBS as described above.
as §5
Viable or dead E. coli (ATCC 8739) were incubated with different pro-fluorophores (10 - 15 µM) for 30 min at 37 °C. After washes, fluorescence of the E. coli suspension was measured with a FluoroLog®-3 spectrofluorometer (excitation wavelength: 488 nm, emission wavelength: 517 nm). Relative rates of viable E. coli fluorescence intensity were calculated by normalizing the difference of viable E. coli fluorescence intensity and dead E. coli fluorescence intensity with 5-CFDA staining.
Viable E. coli (ATCC 8739) were incubated with different pro-fluorophores (15 µM) at 37 °C for 10 - 60 min. After washes, E. coli fluorescence suspension was measured with FluoroLog®-3 spectrofluorometer (excitation wavelength: 488 nm, emission wavelength: 517 nm).

[7] = fluorophores, 0.1 M NaOH solution at pH 12.7
[8] = pro-fluorophores, PBS buffer containing 0.6 % glutaraldehyde at pH 7

Structure (SMILES)	E (extinction coefficient) [1, 7] [M⁻¹ cm⁻¹]	λAbs max [1, 7] [nm]	Φ (quantum yield) [2]	λem [2] [nm]	λex [2] [nm]	staining of viable E. coli (microscopy) [4]	E (extinction coefficient) [1, 8] [M⁻¹ cm⁻¹]	λAbs max [1, 8] [nm]	also measured
O=C(O)c1ccc2c(c1)C(=O)OC21c2ccc(O)cc2Oc2cc(O)ccc21 [Example 5-CF, 5-carboxyfluorescein, reference compound]	76474 ± 4009	493	0.963 ± 0.004	517 ± 0.6	491 ± 0.7				
CC(=O)Oc1ccc2c(c1)Oc1cc(OC(C)=O)ccc1C21OC(=O)c2cc(C(=O)O)ccc21 [Example 5-CFDA, 5-carboxyfluorescein diacetate, reference compound]									fluorescence intensity of the stained B. subtilis [3]: higher than the staining with 5-POGDA and 5-POGAM
O=C(O)c1ccc2c(c1)C(=O)OC21c2cc(F)c(O)cc2Oc2cc(O)c(F)cc21 [Example 5-COG, 5-carboxy Oregon Green™, reference compound]	83136 ± 4452	493	0,912 ± 0.011	517 ± 0.4	491 ± 1.2				
CC(=O)Oc1cc2c(cc1F)C1(OC(=O)c3cc(C(=O)O)ccc31)c1cc(F)c(OC(C)=O)cc1O2 [Example 5-COGDA, 3',6'-diacetoxy-2',7'-difluoro-3-oxo-3H-spiro[isobenzofuran-1,9'-xanthene]-5-carboxylic acid]						specifically stained with high fluorescence intensity	6979 ± 282	300	chemical stability in aqueous solution (in words) [5]: less stable; relative speed of spontaneous fluorescence generation (spontaneous hydrolysis) ([5]; relative to 5-CFDA, 15 µM, PBS containing 0.6 % glutaraldehyde, pH ~7, 37°C, 0-60 min): eight times higher; viable E. coli fluorescence intensity relative to 5-CFDA staining ([6]; 10 - 15 µM, 30 min at 37 °C, excitation 488 nm, emission 517 nm, Figure 5): between two and three times higher
CCCNC(=O)c1ccc2c(c1)C(=O)OC21c2ccc(O)cc2Oc2cc(O)ccc21 [Example 5-PFA, 3',6'-dihydroxy-3-oxo-N-propyl-3H-spiro[isobenzofuran-1,9'-xanthene]-5-carboxamide]	73490 ± 8454	495	0,835 ± 0.002	518 ± 0.4	493 ± 0.3				
CCCNC(=O)c1ccc2c(c1)C(=O)OC21c2ccc(OC(C)=O)cc2Oc2cc(OC(C)=O)ccc21 [Example 5-PFDA, 3-oxo-5-(propylcarbamoyl)-3H-spiro[isobenzofuran-1,9'-xanthene]-3',6'-diyl diacetate]						specifically stained with high fluorescence intensity	9284 ± 758	291	viable E. coli fluorescence intensity compared with 5-CFDA over incubation time ([6]; 15 µM, 37 °C, incubation for 10 to 60 min, Figure 6): higher fluorescence intensity than incubation with 5-CFDA
CCCOC(=O)c1ccc2c(c1)C(=O)OC21c2ccc(OC(C)=O)cc2Oc2cc(OC(C)=O)ccc21 [Example 5-PFDAE, 3-oxo-5-(propoxycarbonyl)-3H-spiro[isobenzofuran-1,9'-xanthene]-3',6'-diyl diacetate]						weaker green fluorescence, as compared to 5-CFDA staining	7903 ± 761	295	fluorescence signal of dead E. coli (microscopy) [4]: No fluorescence signal of dead bacteria was detected; chemical stability in aqueous solution (in words) [5]: remarkable stability
CCCNC(=S)Nc1ccc2c(c1)C(=O)OC21c2ccc(OC(C)=O)cc2Oc2cc(OC(C)=O)ccc21 [Example 5-PFDAT, 3-oxo-5-(3-propylthioureido)-3H-spiro[isobenzofuran-1,0'-xanthene]-3',6'-diyl diacetate]						become fluorescent			fluorescence signal of dead E. coli (microscopy) [4]: become fluorescent
CCCNC(=O)c1ccc2c(c1)C(=O)OC21c2cc(F)c(O)cc2Oc2cc(O)c(F)cc21 [Example 5-POG, 2',7'-difluoro-3',6'-dihydroxy-3-oxo-N-propyl-3H-spiro[isobenzofuran-1,9'-xanthene]-5-carboxamide]	74835 ± 4762	495	0,902 ± 0.013	518 ± 1.1	493 ± 0.6				
